The values below come from patent US12478602B2, “Method for treating a disorder” (priority 2023, dated 2025).

The subject of data set [1] is mice having autism spectrum disorder. Description: Social cognition experiment in mouse model of autism spectrum disorder. The data set is classed as in vivo. The following applies: 500 mg/kg orally once a day for 2 weeks from age 3 weeks. The text has this: Pregnant C57BL/6 mice were subcutaneously injected with valproic acid (VPA) at the time when the gestation period reached 12 days. Male mice were selected from the mice that were born from the pregnant mice that were subcutaneously injected with VPA, and these were used as animals for a mouse model of autism spectrum disorder.
Since 3-week-old mice are at the critical stage, 3-week-old normal mice and 3-week-old mice having autism spectrum disorder were subjected to a sociality experiment, a social cognition experiment, and an anxiety experiment to identify the underlying features. 500 mg/kg of L-serine (hereinafter, referred to as AST-001) was orally administered for 2 weeks to mice having autism spectrum disorder, in which the underlying features had been confirmed. The mice having autism spectrum disorder, to which AST-001 had been orally administered for 2 weeks, were again subjected to a sociality experiment, a social cognition experiment, and an anxiety experiment.
A social cognition experiment, which measures whether or not an experimental mouse moves in the direction of a non-familiar mouse in a case where the experimental mouse is placed between a non-familiar mouse and a familiar mouse, was carried out (see FIG. 1B). […]

Data set [2] relates to cortical layer 5 pyramidal neurons. As to the kind of experiment: Synaptic pruning: dendritic spine density. Format: in vivo, mouse. The following applies: 400 mg/kg orally for 2 weeks. As for the experimental part: A mouse model of autism spectrum disorder was created with the method described in Example 1.1. It is known that in autism spectrum disorder, the number of dendrites increases more than necessary due to troubles in synaptic pruning at the critical stage. Therefore, an experiment, which checks whether or not the number of dendrites can be normalized by AST-001 administration, was carried out. After oral administration of 400 mg/kg of AST-001 for 2 weeks to 3-week-old male autism spectrum disorder mice (n=8), it was checked whether or not the spine density of the synaptic dendrites was similar to that of the control group male normal mice (n=3). […] As a result, it was confirmed that oral administration of AST-001 normalizes synaptic pruning at the critical stage in autism spectrum disorder.

The subject of data set [3] is mice having autism spectrum disorder. Description: Spatial memory experiment (Y-maze test). The following applies: 180, 300, 480 or 600 mg/kg orally for 28 days; with increasing dosage. The data set is classed as in vivo, mouse. Here is the method: Mice having autism spectrum disorder were created by the same method as in Example 1.1. The 3-week-old male mice having autism spectrum disorder were orally injected with 180, 300, 480, or 600 mg/kg of L-serine for 28 days and then subjected to a spatial memory test. Normal mice were used as a control group. Eight mice were used for each experimental group. The spatial working memory of the mice was evaluated through the Y-maze test. As the administration dosage of L-serine increased, the value of spontaneous alteration, which is a measure of spatial memory, increased (see FIG. 7).

Data set [4] deals with children having autism spectrum disorder. As to the kind of experiment: Phase 2 clinical trial, effectiveness. Format: in vivo, human. The following applies: high-dose short-term administration group, 24 weeks vs 12 weeks. As for the experimental part:
151 children having autism spectrum disorder were subjected to a multicentered, randomly assigned, double-blinded, placebo-controlled, and therapeutically exploratory phase 2 clinical trial for exploring the effectiveness and evaluating the safety of an AST-001 syrup. An AST-001 syrup used in a clinical trial is a colorless or pale yellow clear syrup which is aromatic and has sweetness, and it comprises, as a main ingredient, 10 g of L-serine in about 100 mL of this drug and is packaged in aluminum foil at a dosage of 2 g/20 mL. The composition of the AST-001 syrup is such that the AST-001 syrup comprises L-serine as a main ingredient, sodium carboxymethyl cellulose as a thickener, methyl paraoxybenzoate and propyl paraoxybenzoate as preservatives, a citric acid hydrate and a potassium citrate hydrate as pH adjusting agents, white sugar and a D-sorbitol solution as sweetening agents, an apple mint flavor SJ-G (22005221) as a fragrance imparting agent, and purified water. […] After the extension study period of 12 weeks ended, the effectiveness and adverse events in patients were followed up and monitored for 12 weeks (that is, follow-up period). […] The K-VABS-II Adaptive Behavior Composite (K-VABS-II ABC) score, which is a primary evaluation variable, is a calculated score (standard score) for the main domain, where the higher score means the higher level of adaptive behavior.

Data set [5] concerns pediatric patients having autism spectrum disorder. As to the kind of experiment: Clinical trial of 52-week continuous administration, safety.

Structures are written as SMILES.

As to `N[C@@H](CO)C(=O)O` [AST-001, L-serine], in data set [1], the “interaction time with the non-familiar mouse vs interaction time with the familiar mouse” value was “significantly higher” and the “preference index for the non-familiar mouse” value is “high”. In data set [2], the “number of dendrites (spine density of the synaptic dendrites)” value was “significantly reduced and similar to that of the control group”. Moreover, the spontaneous alteration entry in data set [3] is reported as “increased”. Moreover, the “amount of score change in the K-VABS-II ABC and the main domain, 2DC and CGI-S” value in data set [4] is given as “significantly improves”. In addition, the “serious adverse events and deaths evaluated to be related” value in data set [5] (52-week continuous administration) is “no serious adverse events and no deaths”. The “COVID-19 infection adverse events” value in data set [5] (high dose group) was determined as 6 events. Further, in data set [5] (low dose group), the “COVID-19 infection adverse events” value is recorded as 5 events.
